Tests used:
NO = NO production in RAW264.7 cells activated with LPS (Griess); type: cell-based
Protocol: RAW264.7 cells were diluted at a concentration of 1×10^6 cell/ml and then inoculated into RPMI 1640 medium. After 5 hours, the inventive macelignan was added to the medium at each of a concentration of 1-20 μM, followed by incubation for 2 hours. Then, the medium was treated with LPS (10 μg/ml) and incubated for 24 hours. A control group was treated only with LPS. The production of NO was quantified by measuring NO2^−, a reaction product of NO, using the remains of cell culture (Han et al., Life Sci., 75(6): 675-684, 2004). 100 μl of the remains of cell culture and the same volume of Greiss reagent (0.5% sulfanilyamide, 0.05% N-(1-naphthyl)ethylene diamine dihydrochloride/2.5% H3PO4) were mixed with each other on a 96-well tissue culture plate and allowed to react in a dark place for 10 minutes. Then, the absorbance of the sample was measured at 550 nm using the ELISA microplate reader. […] All tests were repeated at three times, and then quantified by student's t-test.

PGE2 = PGE2 production in macrophages activated by LPS (ELISA); type: cell-based
Protocol: First, 1×10^6 cells/ml of RAW264.7 cells were inoculated into a 96-well tissue culture plate and left to stand at room temperature for 5 hours. Then, the inventive macelignan was added to the cells at each of concentrations of 1-20 μM and incubated for 2 hours. A negative control group was not treated with anything, and a positive control group was treated with curcumin (isolated from Curcuma longa; Sigma) reported to have PGE2 inhibitory activity. Then, the cells were treated with 1 μg/ml of LPS and cultured for 18 hours. The production of PGE2 in the macrophages was quantified by an assay kit (R&D System Inc, Minneapolis, USA) using an ELISA method (Chen et al., Biochem. Pharmacol., 68: 1089-1100, 2002).

[1] = Skin barrier recovery test (TEWL, skin hydration, erythema index), atopic dermatitis model; type: in vivo, NC/Nga mice
Protocol: 8-week-old NC/Nga mice (20-25 g) were purchased from Chungang Lab. Animal. After adapting for 1 week, the NC/Nga mouse was anesthetized with 90% ethyl ether (Ducsan, Korea) and hair was removed from the occipital region and the back of the mouse using depilatory cream (Reckitt Benckiser, France). After allowing micro wound healing for a day, 100 mg of mite antigen cream (Biostir, Inc. Japan) comprising Dermatophagoides farina, which causes atopic dermatitis, as a main ingredient was evenly applied on the ear, occipital region and back, 3 times a week (for 5 weeks, from week 9 to week 13). 2 hours before application of the mite antigen cream, 4% SDS solution was applied at the same area to increase transdermal absorption of the mite antigen cream by inducing the breakdown of skin fats and cuticle layer. From week 3 following the application, IgE value was measured to quantitate the degree of atopic dermatitis. Also during the drug treatment period (week 12 to week 13), 100 mg of the mite antigen cream was applied 3 times a week to prevent spontaneous healing of the atopic dermatitis.
In order to induce atopic dermatitis, 100 mg of mite antigen cream was applied on the ear, occipital region and back of NC/Nga mouse (9 to 11 weeks old), except for the negative control group, 3 times a week, 2 hours after the application of 4% SDS solution. Three weeks later, it was observed whether atopic dermatitis was induced by checking skin rash, erythema, cornification, or the like. Atopic dermatitis was induced in all groups except for the negative control group. For drug treatment and evaluation of therapeutic effect, mice were grouped into 12 groups, 6 oral administration groups and 6 topical application groups (each consisting of negative control group, positive control group, macelignan low conc. group, macelignan high conc. group, nutmeg extract low conc. group, and nutmeg extract high conc. group), with n=5 per cage. During the following drug treatment and evaluation period of 2 weeks (12 to 13 weeks old), the negative control groups, which had not been treated with 4% SDS solution and mite antigen cream, were treated with physiological saline (oral administration group) or base cream (topical application group) every day, and the positive control groups, which had been treated with 100 mg of mite antigen cream 2 hours after application of 4% SDS solution, 3 times every week, were treated with physiological saline (oral administration group) or base cream (topical application group). The oral administration groups were treated with 100 mg of mite antigen cream 2 hours after application of 4% SDS solution, 3 times every week, and were treated with macelignan or nutmeg extract at low concentration (50 mg/kg/day) or high concentration (150 mg/kg/day) every day. The topical application groups were treated with 100 mg of mite antigen cream 2 hours after application of 4% SDS solution, 3 times every week, and were treated with macelignan cream or nutmeg extract cream at low concentration (20 mg/kg/day) or high concentration (60 mg/kg/day) every day. Transepidermal water loss (TEWL), skin hydration and erythema index were measured one day before the end of the test. Serum was obtained by retro-orbital blood sampling. After the end of the test (14 weeks old) spleen and skin tissues from occipital region and back were sampled and stored at −70° C. ALN (axillary lymph node) was stored in DMEM containing 2% FBS (fetal bovine serum). The skin tissues were stored in 10% formalin solution.
One day before the end of the experiment, TEWL, skin hydration and erythema index were measured to quantitatively compare recovery of skin barrier. TEWL was measured with a tewameter (TM300), skin hydration with a corneometer (CM825), and erythema index with a mexameter (MX18).

[2] = oral administration 50 mg/kg/day
[3] = oral administration 150 mg/kg/day
[4] = oral administration 50 and 150 mg/kg, p<0.01
[5] = topical application 20 mg/kg/day
[6] = topical application 60 mg/kg/day
[7] = topical application 20 and 60 mg/kg, p<0.01

## COc1cc(C[C@H](C)[C@H](C)Cc2ccc3c(c2)OCO3)ccc1O (single isomer, unassigned) [macelignan]
NO; 1 μM and 5 μM, P<0.01
  inhibition of NO production at low concentrations: excellent effects on the inhibition of NO production
NO; 20 μM macelignan
  production of NO at 20 μM: inhibited to an extent almost similar to that of the group treated with nothing
NO; 1-20 μM, LPS 10 μg/ml, 24 hours
  production of NO: concentration-dependently inhibited
PGE2; 1-20 μM, LPS 1 μg/ml, 18 hours, effect shown even at 5 μM
  production of PGE2: concentration-dependently inhibited
PGE2; positive control curcumin, P<0.05
  PGE2 production-inhibitory effect compared with curcumin: almost similar to the case of treatment with curcumin
[1]; [2]
  Erythema Index: 198.5 ± 46.8
  Skin Hydration: 5.0 ± 0.8 AU
  TEWL: 17.6 ± 8.1 g/hr · m^2
[1]; [3]
  Erythema Index: 190 ± 24.4
  Skin Hydration: 6.4 ± 2.8 AU
  TEWL: 21.5 ± 9.2 g/hr · m^2
[1]; oral administration 50 and 150 mg/kg
  skin hydration compared to the positive control group: effect of increasing skin hydration
[1]; [4]
  TEWL compared to the positive control group: statistically significant effect of suppressing TEWL
  erythema index compared to the positive control group: statistically significant effect of decreasing erythema index
[1]; [5]
  Erythema Index: 163.3 ± 4.0
  Skin Hydration: 12.4 ± 3.9 AU
  TEWL: 25.8 ± 3.1 g/hr · m^2
[1]; [6]
  Erythema Index: 190 ± 24
  Skin Hydration: 13.4 ± 4.7 AU
  TEWL: 26.2 ± 4.9 g/hr · m^2
[1]; [7]
  TEWL compared to the positive control group: statistically significant effect of suppressing TEWL
  erythema index compared to the positive control group: statistically significant effect of decreasing erythema index
  skin hydration compared to the positive control group: statistically significant effect of increasing skin hydration
